The values below come from the supplement of paper PMC11368000.

The first test concerns 20032 (donor line of iPSC-derived cardiomyocytes). Put plainly: POD (EC05) for increase in Ca2+ transient decay-to-rise ratio (QT prolongation) vs vehicle; higher = less potent (higher point of departure). The note with it: exposure time: 90 min. A digest of the protocol: (§1)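 Ca2+ flux in human iPSC-derived cardiomyocytes from 16 donors was recorded on a FLIPR Tetra for 100 s before and after a 90 min exposure at 37 °C to 0.1, 1, 10 and 100 µM (final, 0.5% DMSO). Donor-specific points of departure came from hierarchical Bayesian Hill fits to vehicle-normalised beat frequency, decay-to-rise ratio or peak frequency. A 5% change served as threshold, except for peak frequency, where it was a 95% loss.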
On to `O=C(O)CCC(F)(F)C(F)(F)C(F)(F)C(F)(F)C(F)(F)F` [2H,2H,3H,3H-Perfluorooctanoic_acid], for which the POD vs vehicle was 48.4 µM.

Regarding `O=C(O)C=C(C(F)(F)F)C(F)(F)F` [3,3-Bis(trifluoromethyl)-2-propenoic_acid], the POD vs vehicle is greater than 100 µM.

On to `O=C(O)C=CC(F)(C(F)(F)F)C(F)(F)F` [3-(Perfluoroisopropyl)-2-propenoic_acid], for which the POD vs vehicle is greater than 100 µM.

Take `O=C(O)CCC(F)(F)C(F)(F)C(F)(F)C(F)(F)C(F)(F)C(F)(F)C(F)(F)F` [3-Perfluoroheptylpropanoic_acid]: the POD vs vehicle amounted to 33.8 µM.

With `O=C(O)CCC(F)(F)C(F)(F)C(F)(F)F` [3:3 Fluorotelomer carboxylic acid], the POD vs vehicle is greater than 100 µM.

Regarding `O=C(CC(=O)C(F)(F)C(F)(F)F)C(F)(F)F` [3H,3H-Perfluoro-2,4-hexanedione], the POD vs vehicle is greater than 100 µM.

Take `OCCC(F)(F)C(F)(F)C(F)(F)C(F)(F)F` [4:2 Fluorotelomer alcohol]: the POD vs vehicle is greater than 100 µM.

On to `O=S(=O)(O)CCC(F)(F)C(F)(F)C(F)(F)C(F)(F)F` [4:2 Fluorotelomer sulfonic acid], for which the POD vs vehicle is greater than 100 µM.

With `OCC(F)(F)C(F)(F)C(F)(F)C(F)(F)C(F)(F)C(F)(F)F` [6:1 Fluorotelomer alcohol], the POD vs vehicle is greater than 100 µM.

Regarding `CN(CCO)S(=O)(=O)C(F)(F)C(F)(F)C(F)(F)C(F)(F)C(F)(F)C(F)(F)C(F)(F)C(F)(F)F` [N-Methyl-N-(2-hydroxyethyl)perfluorooctanesulfonamide], the POD vs vehicle is greater than 100 µM.

Another test has as its system 30145 (donor line of iPSC-derived cardiomyocytes). The test is described as above. The settings on record: exposure time: 90 min. A digest of the protocol:
as §1
Consider `NC(=O)C(F)(F)C(F)(F)C(F)(F)C(F)F`, for which the POD vs vehicle is greater than 100 µM.

Consider `OCC(O)CC(F)(F)C(F)(F)C(F)(F)C(F)(F)C(F)(F)C(F)(F)C(F)(F)C(F)(F)F` (stereo not given) [1-(Perfluorofluorooctyl)propane-2,3-diol], for which the POD vs vehicle is greater than 100 µM.

As to `CC(O)C(F)(F)C(F)(F)F` (stereo not given) [1-Pentafluoroethylethanol], the POD vs vehicle was greater than 100 µM.

In the case of `OCC(F)(F)C(F)(F)C(F)(F)C(F)F` [1H,1H,5H-Perfluoropentanol], the POD vs vehicle is greater than 100 µM.

As for `O=S(=O)(OCC(F)(F)F)C(F)(F)C(F)(F)C(F)(F)C(F)(F)F` [2,2,2-Trifluoroethyl_perfluorobutanesulfonate], the POD vs vehicle is greater than 100 µM.

Turning to `O=C(O)C(F)(F)C(F)(F)C(F)F` [2,2,3,3,4,4-Hexafluorobutanoic_acid], the POD vs vehicle is greater than 100 µM.

Turning to `NC(O)(C(F)(F)F)C(F)(F)F` [2-Aminohexafluoropropan-2-ol], the POD vs vehicle is greater than 100 µM.

As to `O=C(O)CCC(F)(F)C(F)(F)C(F)(F)C(F)(F)C(F)(F)F` [2H,2H,3H,3H-Perfluorooctanoic_acid], the POD vs vehicle is greater than 100 µM.

In the case of `O=C(O)C=C(C(F)(F)F)C(F)(F)F` [3,3-Bis(trifluoromethyl)-2-propenoic_acid], the POD vs vehicle is greater than 100 µM.

As to `O=C(O)C=CC(F)(C(F)(F)F)C(F)(F)F` [3-(Perfluoroisopropyl)-2-propenoic_acid], the POD vs vehicle is greater than 100 µM.

`O=C(O)CCC(F)(F)C(F)(F)C(F)(F)C(F)(F)C(F)(F)C(F)(F)C(F)(F)F` [3-Perfluoroheptylpropanoic_acid]: the POD vs vehicle was greater than 100 µM.

For the compound `O=C(O)CCC(F)(F)C(F)(F)C(F)(F)F` [3:3 Fluorotelomer carboxylic acid], the POD vs vehicle was greater than 100 µM.

Regarding `O=C(CC(=O)C(F)(F)C(F)(F)F)C(F)(F)F` [3H,3H-Perfluoro-2,4-hexanedione], the POD vs vehicle is greater than 100 µM.

Turning to `OCCC(F)(F)C(F)(F)C(F)(F)C(F)(F)F` [4:2 Fluorotelomer alcohol], the POD vs vehicle is greater than 100 µM.

Turning to `O=S(=O)(O)CCC(F)(F)C(F)(F)C(F)(F)C(F)(F)F` [4:2 Fluorotelomer sulfonic acid], the POD vs vehicle is greater than 100 µM.

Turning to `OCC(F)(F)C(F)(F)C(F)(F)C(F)(F)C(F)(F)C(F)(F)F` [6:1 Fluorotelomer alcohol], the POD vs vehicle is greater than 100 µM.

Regarding `NC(=O)C(F)(F)C(F)(F)C(F)(F)F` [Heptafluorobutyramide], the POD vs vehicle is greater than 100 µM.

Regarding `CN(CCO)S(=O)(=O)C(F)(F)C(F)(F)C(F)(F)C(F)(F)C(F)(F)C(F)(F)C(F)(F)C(F)(F)F` [N-Methyl-N-(2-hydroxyethyl)perfluorooctanesulfonamide], the POD vs vehicle was greater than 100 µM.

Turning to `NC(=O)C(F)(F)C(F)(F)C(F)(F)C(F)(F)C(F)(F)C(F)(F)C(F)(F)F` [Perfluorooctanamide], the POD vs vehicle is greater than 100 µM.

For the compound `N=C(N)C(F)(F)C(F)(F)C(F)(F)C(F)(F)C(F)(F)C(F)(F)C(F)(F)F` [Perfluorooctanamidine], the POD vs vehicle was greater than 100 µM.

For a further test, the system named is 1118 (donor line of iPSC-derived cardiomyocytes). Described as above. The note with it: exposure time: 90 min. A digest of the protocol:
as §1
With `NC(=O)C(F)(F)C(F)(F)C(F)(F)C(F)F`, the POD vs vehicle was 7.19 µM.

Regarding `OCC(O)CC(F)(F)C(F)(F)C(F)(F)C(F)(F)C(F)(F)C(F)(F)C(F)(F)C(F)(F)F` (stereo not given) [1-(Perfluorofluorooctyl)propane-2,3-diol], the POD vs vehicle was greater than 100 µM.

Take `CC(O)C(F)(F)C(F)(F)F` (stereo not given) [1-Pentafluoroethylethanol]: the POD vs vehicle is greater than 100 µM.

Turning to `OCC(F)(F)C(F)(F)C(F)(F)C(F)F` [1H,1H,5H-Perfluoropentanol], the POD vs vehicle was greater than 100 µM.

With `O=S(=O)(OCC(F)(F)F)C(F)(F)C(F)(F)C(F)(F)C(F)(F)F` [2,2,2-Trifluoroethyl_perfluorobutanesulfonate], the POD vs vehicle is greater than 100 µM.

For the compound `O=C(O)C(F)(F)C(F)(F)C(F)F` [2,2,3,3,4,4-Hexafluorobutanoic_acid], the POD vs vehicle is greater than 100 µM.

As for `NC(O)(C(F)(F)F)C(F)(F)F` [2-Aminohexafluoropropan-2-ol], the POD vs vehicle was greater than 100 µM.

Take `O=C(O)CCC(F)(F)C(F)(F)C(F)(F)C(F)(F)C(F)(F)F` [2H,2H,3H,3H-Perfluorooctanoic_acid]: the POD vs vehicle is greater than 100 µM.

`O=C(O)C=C(C(F)(F)F)C(F)(F)F` [3,3-Bis(trifluoromethyl)-2-propenoic_acid]: the POD vs vehicle is greater than 100 µM.

Consider `O=C(O)C=CC(F)(C(F)(F)F)C(F)(F)F` [3-(Perfluoroisopropyl)-2-propenoic_acid], for which the POD vs vehicle was greater than 100 µM.

As to `O=C(O)CCC(F)(F)C(F)(F)C(F)(F)C(F)(F)C(F)(F)C(F)(F)C(F)(F)F` [3-Perfluoroheptylpropanoic_acid], the POD vs vehicle is greater than 100 µM.

As to `O=C(O)CCC(F)(F)C(F)(F)C(F)(F)F` [3:3 Fluorotelomer carboxylic acid], the POD vs vehicle is greater than 100 µM.

Regarding `O=C(CC(=O)C(F)(F)C(F)(F)F)C(F)(F)F` [3H,3H-Perfluoro-2,4-hexanedione], the POD vs vehicle was greater than 100 µM.

Turning to `OCCC(F)(F)C(F)(F)C(F)(F)C(F)(F)F` [4:2 Fluorotelomer alcohol], the POD vs vehicle is greater than 100 µM.

In the case of `O=S(=O)(O)CCC(F)(F)C(F)(F)C(F)(F)C(F)(F)F` [4:2 Fluorotelomer sulfonic acid], the POD vs vehicle was greater than 100 µM.

In the case of `OCC(F)(F)C(F)(F)C(F)(F)C(F)(F)C(F)(F)C(F)(F)F` [6:1 Fluorotelomer alcohol], the POD vs vehicle is greater than 100 µM.

On to `NC(=O)C(F)(F)C(F)(F)C(F)(F)F` [Heptafluorobutyramide], for which the POD vs vehicle is greater than 100 µM.

Regarding `CN(CCO)S(=O)(=O)C(F)(F)C(F)(F)C(F)(F)C(F)(F)C(F)(F)C(F)(F)C(F)(F)C(F)(F)F` [N-Methyl-N-(2-hydroxyethyl)perfluorooctanesulfonamide], the POD vs vehicle was greater than 100 µM.

For `NC(=O)C(F)(F)C(F)(F)C(F)(F)C(F)(F)C(F)(F)C(F)(F)C(F)(F)F` [Perfluorooctanamide], the POD vs vehicle was greater than 100 µM.

Take `N=C(N)C(F)(F)C(F)(F)C(F)(F)C(F)(F)C(F)(F)C(F)(F)C(F)(F)F` [Perfluorooctanamidine]: the POD vs vehicle is greater than 100 µM.
